The test system of data set [1] is PV1 (poliovirus type 1 strain Sabin). Kind of data set: microbe, parasite or virus in culture. It is filed as cell-based. Conditions: Enterovirus C, BGM.
The subject of data set [2] is CVB4 (strain E2 Edwards). Briefly: Virus-cell-based antiviral assay (CPE reduction, MTS). The note with it: Enterovirus B, BGM cells.
Data set [3] is described as follows: in vitro. Conditions: African green monkey.
Data set [4] has as its system EV71-B5 (strain TW/96016/08 genogroup B5). Briefly: Virus-cell-based antiviral assay (CPE reduction, MTS). Further details: species or system enterovirus 71. The note with it: Enterovirus A; EV71 strain TW/96016/08 genogroup B5; RD cells.
Data set [5] relates to HRV14 (human rhinovirus type 14). Described as above. The note with it: Human rhinovirus sp., HeLa H1 cells (footnote c), 35°C.
The subject of data set [6] is CVB3 (strain Nancy). Described as above. Also noted: species or system Coxsackievirus B3. The note with it: Enterovirus B, BGM cells.
Data set [7] relates to EV71-B2 (strain 11316 genogroup B2). Described as above. Also noted: species or system enterovirus 71. Conditions: Enterovirus A; EV71 strain 11316 genogroup B2; RD cells.
The subject of data set [8] is CVA21 (strain Coe). The data set is described as above. Conditions: BGM cells.
Data set [9] relates to ECHO11 (echovirus 11 strain Gregory). The description is as above. The note with it: Enterovirus B, BGM cells.
The subject of data set [10] is HRV02 (human rhinovirus type 2). Described as above. Conditions: Human rhinovirus sp., HeLa H1 cells (footnote c), 35°C.
Data set [11] relates to CVA16 (strain G-10). Described as above. Also noted: species or system coxsackievirus A16. Conditions: Enterovirus A, HeLa H1 cells.
Data set [12] has as its system PV3 (poliovirus type 3 strain Sabin). Kind of data set: microbe, parasite or virus in culture. It is filed as cell-based. The note with it: Enterovirus C, BGM.
The subject of data set [13] is PV2 (poliovirus type 2 strain Sabin). Kind of data set: microbe, parasite or virus in culture. Conditions: Enterovirus C, BGM. The class given is cell-based.
Data set [14] concerns CVA9 (strain Bozek). Kind of data set: Virus-cell-based antiviral assay (CPE reduction, MTS). The note with it: Enterovirus B, BGM cells. Further details: species or system Coxsackie A9.

A word on the EC50: it is the concentration needed to bring the measured effect to its halfway point. Regarding `CCON=Cc1ccc(OCCC(C)CCN2CCN(c3ccnc(C(N)=O)c3)C2=O)cc1` (stereo not shown) [ALD], the EC50 is 3.5 ± 1.4 µM in data set [1]; greater than 7 µM in data set [2]; 0.082 ± 0.023 µM in data set [4]; 0.843 ± 0.013 µM in data set [5]; 2.2 ± 0.2 µM in [6]; 0.031 ± 0.012 µM in data set [7]. Moreover, the EC50 in [8] was 0.056 ± 0.04 µM; in data set [9], 2.1 ± 0.5 µM; in data set [10] it was greater than 21 µM; in data set [11], 0.043 ± 0.008 µM; in data set [12] it was 0.184 ± 0.008 µM; in data set [13], 0.075 ± 0.019 µM. This compound displayed an EC50 in data set [14] of 5.4 ± 1 µM. Moreover, in data set [3], the CC50 stood at 7 ± 1 µM.

In the case of `CCON=Cc1ccc(OCCC(C)CCN2CCN(c3ccncc3)C2=O)cc1` (stereo not shown) [GPP3], the EC50 in [1] was 0.2 µM; in data set [2], greater than 7 µM; in data set [4] it was 0.00093 ± 0.0003 µM; in data set [5], 1.5 ± 0.3 µM; in data set [6], 3.7 ± 0.2 µM; in [7] it was 0.00096 ± 0.0006 µM. For the same compound, the EC50 in data set [8] stood at 0.016 ± 0.015 µM; in [9], 0.5 ± 0.1 µM; in data set [10], 1 ± 0.7 µM; in [11] it was 0.014 ± 0.004 µM; in data set [12], 0.066 µM; in [13], 0.006 µM. Besides, in data set [14], the half-maximal effective concentration (EC50) was determined as 1.5 ± 0.1 µM. Further, in [3], the CC50 was determined as 7 ± 2 µM.

For the origin of these results see PMC4613828 (PLoS Pathogens, 2015).
